We go through 39 compounds from patent US20250346602A1, “LACTAM SUBSTITUTED IMIDAZOPYRIDAZINE IL-17A MODULATORS AND USES THEREOF” (DICE ALPHA, INC., priority 2022, published 2025).

The target of this experiment is T1, IL-17A/A (Homo sapiens, UniProt Q16552).
T1 construct: purchased Genscript Z03228
T1 sequence (Q16552 24-155): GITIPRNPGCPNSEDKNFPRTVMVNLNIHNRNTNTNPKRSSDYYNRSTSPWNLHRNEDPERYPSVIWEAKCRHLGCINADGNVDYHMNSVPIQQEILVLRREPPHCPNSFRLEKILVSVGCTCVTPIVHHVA
Kind of experiment: IL-17A/A HEK-Blue cell assay. The class given is cell-based. The settings on record: HEK-Blue IL-17A reporter cell line (HEK 293), IL-17A/A stimulation, 20 hours incubation, SEAP read at A630. As for the experimental part:
The HEK-Blue IL-17A reporter cell line (Fisher #NC1408637) was used for cell-based IL-17A/A inhibition assays. Cells were grown and prepared for assays according to the manufacturer's instructions. This cell line consists of HEK 293 cells that were designed to expressed IL-17RA, IL-17RC, and the ActI adapter molecule, the combination of which, when stimulated by IL-17A/A activates a NFκB promoter and drives expression of a recombinant Secreted Alkaline Phosphatase (SEAP) gene protein. Media from the cells is then added to a development reagent (Quanti-Blue Substrate, Fisher #NC9711613), and read at A630.
Compounds were titrated in DMSO, with a top final compound concentration of 10 uM, 1 uM, or 0.3 uM, and added to the cells immediately before adding IL-17A/A (Genscript #Z03228). The cells, compound, and IL-17A/A were then incubated for 20 hours before media was removed for SEAP analysis. The resulting inhibition curve was then analyzed using Graphpad Prism 7.0, and IC50 values were determined using a 4-parameter nonlinear fit. DMSO was added to a universal final concentration of 0.1% to optimize background.
On to `CCn1nccc1C(=O)N[C@H](c1cn2nc(CC3C[C@@H](C(F)(F)F)CNC3=O)c(N(C)C3CC3)cc2n1)C1CCC(F)(F)CC1` (single isomer, unassigned) [Compound 91], for which the IC50 is less than 100 nM. As for `CCn1nccc1C(=O)N[C@H](c1cn2nc(CC3C[C@H](C(F)(F)F)CNC3=O)c(C)cc2n1)C1CCC(F)(F)CC1` (single isomer, unassigned) [Compound 92], the figure is less than 100 nM; as for `CCn1nccc1C(=O)N[C@H](c1cn2nc(CC3C[C@@H](C(F)(F)F)CNC3=O)c(N(C)C3CCOCC3)cc2n1)C1CCC(F)(F)CC1` (single isomer, unassigned) [Compound 93], 100 to 1000 nM. As for `CCn1nccc1C(=O)N[C@H](c1cn2nc(CC3C[C@@H](C(F)(F)F)CNC3=O)c(N(C)C3CCOCC3)cc2n1)C1CCC(F)(F)CC1` (single isomer, unassigned) [Compound 94], the figure is less than 100 nM; as for `O=C(N[C@H](c1cn2nc(CC3C[C@@H](C(F)(F)F)CNC3=O)ccc2n1)C1CCC(F)(F)CC1)c1ccnn1C1CC1(F)F` (single isomer, unassigned) [Compound 98], less than 100 nM. With `O=C(N[C@H](c1cn2nc(CC3C[C@@H](C(F)(F)F)CNC3=O)ccc2n1)C1CCC(F)(F)CC1)c1ccnn1C1CC1(F)F` (single isomer, unassigned) [Compound 99] the figure was 100 to 1000 nM. On to `O=C(N[C@H](c1cn2nc(CC3C[C@@H](C(F)(F)F)CNC3=O)ccc2n1)C1CCC(F)(F)CC1)c1conc1C1CC1(F)F` (single isomer, unassigned) [Compound 126], for which the IC50 is less than 100 nM. `O=C(N[C@H](c1cn2nc(CC3C[C@@H](C(F)(F)F)CNC3=O)ccc2n1)C1CCC(F)(F)CC1)c1conc1C1CC1(F)F` (single isomer, unassigned) [Compound 127]: the IC50 is less than 100 nM. For `O=C1NC[C@H](C(F)(F)F)CC1Cc1ccc2nc([C@@H](NC(=O)C3CC34CC(F)(F)C4)C3CCC(F)(F)CC3)cn2n1` (single isomer, unassigned) [Compound 130], the IC50 is more than 1000 nM.

For the compound `O=C1NC[C@H](C(F)(F)F)CC1Cc1ccc2nc([C@@H](NC(=O)C3CC34CC(F)(F)C4)C3CCC(F)(F)CC3)cn2n1` (single isomer, unassigned) [Compound 131], the IC50 was 100 to 1000 nM. As for `CCn1nccc1C(=O)N[C@H](c1cn2nc(CC3C[C@@H](C(F)(F)F)CNC3=O)ccc2n1)C1CC2(C1)CC(F)(F)C2` (single isomer, unassigned) [Compound 173], the IC50 is 100 to 1000 nM. As for `CCn1nccc1C(=O)NC(c1cn2nc(CC3C[C@@H](C(F)(F)F)CNC3=O)ccc2n1)C1CCC2CC2CC1` (single isomer, unassigned) [Compound 174], the IC50 is more than 1000 nM. Turning to `CCn1nccc1C(=O)NC(c1cn2nc(CC3C[C@@H](C(F)(F)F)CNC3=O)ccc2n1)C1CCC2CC2CC1` (single isomer, unassigned) [Compound 175], the IC50 was 100 to 1000 nM.

For `CCn1nccc1C(=O)NC(c1cn2nc(CC3C[C@@H](C(F)(F)F)CNC3=O)ccc2n1)C1CCC2CC2CC1` (single isomer, unassigned) [Compound 176], the IC50 was less than 100 nM. As for `CCn1nccc1C(=O)N[C@H](c1cn2nc(CC3C[C@@H](C(F)(F)F)CNC3=O)c(N(C)CC(F)(F)F)cc2n1)C1CCC(F)(F)CC1` (single isomer, unassigned) [Compound 181], the IC50 is less than 100 nM. `CCn1nccc1C(=O)N[C@H](c1cn2nc(CC3C[C@@H](C(F)(F)F)CNC3=O)c(N(C)CC(F)(F)F)cc2n1)C1CCC(F)(F)CC1` (single isomer, unassigned) [Compound 182]: the IC50 was 100 to 1000 nM. For the compound `CCn1nccc1C(=O)N[C@H](c1cn2nc(CC3C[C@@H](C(F)(F)F)CNC3=O)ccc2n1)C1CCC2(CC1)CC2` (single isomer, unassigned) [Compound 188], the IC50 lay in the range of 100 to 1000 nM. As for `CCn1nccc1C(=O)N[C@H](c1cn2nc(CC3C[C@@H](C(F)(F)F)CNC3=O)ccc2n1)C1CC2(CCC2)C1` (single isomer, unassigned) [Compound 189], the figure is 100 to 1000 nM. With `CCn1nccc1C(=O)N[C@H](c1cn2nc(CC3C[C@@H](C(F)(F)F)CNC3=O)ccc2n1)C1CC2(CCC2)C1` (single isomer, unassigned) [Compound 190] the figure was more than 1000 nM; with `CCn1nccc1C(=O)N[C@H](c1cn2nc(CC3CC(C(F)(F)F)CNC3=O)ccc2n1)C1CCCCCC1` (single isomer, unassigned) [Compound 195], more than 1000 nM; with `CCn1nccc1C(=O)N[C@H](c1cn2ncc(CC3C[C@@H](C(F)(F)F)NC3=O)cc2n1)C(C1CC1)C1CC1` (single isomer, unassigned) [Compound 201], more than 1000 nM.

`CCn1nccc1C(=O)N[C@H](c1cn2ncc(CC3C[C@@H](C(F)(F)F)NC3=O)cc2n1)C(C1CC1)C1CC1` (single isomer, unassigned) [Compound 202]: the IC50 fell in the range of 100 to 1000 nM. As for `CCn1nccc1C(=O)N[C@H](c1cn2ncc(CC3C[C@@H](C(F)(F)F)NC3=O)cc2n1)C1CCC(F)(F)CC1` (single isomer, unassigned) [Compound 204], the figure is less than 100 nM. As for `O=C(N[C@H](c1cn2ncc(CC3C[C@@H](C(F)(F)F)NC3=O)cc2n1)C1CCC(F)(F)CC1)c1nonc1C1CC1` (single isomer, unassigned) [Compound 205], the figure is less than 100 nM; as for `CCn1nccc1C(=O)N[C@H](c1cn2ncc(CC3C[C@@H](C(F)(F)F)CNC3=O)cc2n1)C(C1CC1)C1CC1` (single isomer, unassigned) [Compound 208], 100 to 1000 nM; as for `CCn1nccc1C(=O)N[C@H](c1cn2ncc(CC3C[C@H](C(F)(F)F)CNC3=O)cc2n1)C(C1CC1)C1CC1` (single isomer, unassigned) [Compound 209], more than 1000 nM. Take `CCn1nccc1C(=O)NC(c1cn2ncc(CC3CC(F)(F)CNC3=O)cc2n1)C1CCC(C)CC1` (single isomer, unassigned) [Compound 210]: the IC50 is more than 1000 nM. On to `CCn1nccc1C(=O)NC(c1cn2ncc(CC3CC(F)(F)CNC3=O)cc2n1)C1CCC(C)CC1` (single isomer, unassigned) [Compound 211], for which the IC50 is 100 to 1000 nM. Regarding `CCn1nccc1C(=O)N[C@H](c1cn2ncc(CC3C[C@@H](C(F)(F)F)NC3=O)cc2n1)[C@H]1CC[C@H](C)CC1` (single isomer, unassigned) [Compound 212], the IC50 is less than 100 nM. With `CCn1nccc1C(=O)NC(c1cn2ncc(CC3CCC(C(F)(F)F)NC3=O)cc2n1)C1CCC(C)CC1` (single isomer, unassigned) [Compound 213] the figure was more than 1000 nM; with `CCn1nccc1C(=O)NC(c1cn2ncc(CC3CCC(C(F)(F)F)NC3=O)cc2n1)C1CCC(C)CC1` (single isomer, unassigned) [Compound 214], 100 to 1000 nM; with `O=C(N[C@H](c1cn2ncc(CC3C[C@@H](C(F)(F)F)NC3=O)cc2n1)C1CCC(F)(F)CC1)c1conc1C(F)(F)F` (single isomer, unassigned) [Compound 215], less than 100 nM.

For the compound `CCn1nccc1C(=O)N[C@H](c1cn2ncc(CC3C[C@@H](C(F)(F)F)CNC3=O)cc2n1)[C@H]1CC[C@H](C)CC1` (single isomer, unassigned) [Compound 216], the IC50 was 100 to 1000 nM. As for `CC[C@@H](c1ccc(F)cc1)[C@H](NC(=O)c1ccnn1CC)c1cn2ncc(CC3C[C@@H](C(F)(F)F)NC3=O)cc2n1` (single isomer, unassigned) [Compound 217], the IC50 is more than 1000 nM.

Take `CC[C@@H](c1ccc(F)cc1)[C@H](NC(=O)c1ccnn1CC)c1cn2ncc(CC3C[C@@H](C(F)(F)F)NC3=O)cc2n1` (single isomer, unassigned) [Compound 218]: the IC50 was less than 100 nM. Turning to `O=C(N[C@H](c1cn2ncc(CC3C[C@@H](C(F)(F)F)NC3=O)cc2n1)C1CCC(F)(F)CC1)c1conc1C1CC1` (single isomer, unassigned) [Compound 219], the IC50 was less than 100 nM. Turning to `Cc1nonc1C(=O)N[C@H](c1cn2nc(CC3CCCNC3=O)ccc2n1)C1CCCCCC1` (stereo partly drawn) [Compound 2, N-((1S)-cycloheptyl(6-((2-oxopiperidin-3-yl)methyl)imidazo[1,2-b]pyridazin-2-yl)methyl)-4-methyl-1,2,5-oxadiazole-3-carboxamide], the IC50 is more than 1000 nM.

As to `CCn1nccc1C(=O)N[C@H](c1cn2nc(CC3CC(C(F)(F)F)CNC3=O)ccc2n1)C1CCCCCC1` (stereo partly drawn) [Compound 3, N-((1 S)-cycloheptyl(6-((2-oxo-5-(trifluoromethyl)piperidin-3-yl)methyl)imidazo[1,2-b]pyridazin-2-yl)methyl)-1-ethyl-1H-pyrazole-5-carboxamide], the IC50 is less than 100 nM. `CCn1nccc1C(=O)N[C@H](c1cn2nc(CC3C[C@@H](C(F)(F)F)NC3=O)ccc2n1)C1CCC(F)(F)CC1` (stereo partly drawn) [Compound 7, N-((1S)-(4,4-difluorocyclohexyl)(6-(((5S)-2-oxo-5-(trifluoromethyl)pyrrolidin-3-yl)methyl)imidazo[1,2-b]pyridazin-2-yl)methyl)-1-ethyl-1H-pyrazole-5-carboxamide]: the IC50 was 100 to 1000 nM.

As a reminder, the IC50 is the point on the concentration scale where inhibition reaches its midpoint.
